Experimental data as given in patent US20230285377A1, “KCNT1 INHIBITORS AND METHODS OF USE” (Praxis Precision Medicines, Inc., priority 2020, published 2023).

Target: KCNT1 (KNa1.1, Slack) (Homo sapiens (Human), UniProt Q5JUK3)
Assay: KCNT1-WT-Basal - Patch Clamp Assay
Format: cell-based
Details: tetracycline inducible HEK-TREX cell line; SyncroPatch 384PE automated patch clamp; step to 0 mV; room temperature
Experimental: Inhibition of KCNT1 (KNa1.1, Slack) was evaluated using a tetracycline inducible cell line (HEK-TREX). Currents were recorded using the SyncroPatch 384PE automated, patch clamp system. Pulse generation and data collection were performed with PatchController384 V1.3.0 and DataController384 V1.2.1 (Nanion Technologies). The access resistance and apparent membrane capacitance were estimated using built-in protocols. Current were recorded in perforated patch mode (10 µM escin) from a population of cells. The cells were lifted, triturated, and resuspended at 800,000 cells/ml. The cells were allowed to recover in the cell hotel prior to experimentation. Currents were recorded at room temperature. The external solution contained the following (in mM): NaCl 105, NMDG 40, KC1 4, MgC12 1, CaC12 5 and HEPES 10 (pH = 7.4, Osmolarity ~300 mOsm). The extracellular solution was used as the wash, reference and compound delivery solution. The internal solution contained the following (in mM): NaCl 70, KF 70, KC1 10, EGTA 5, HEPES 5 and Escin 0.01 (pH = 7.2, Osmolarity ~295 mOsm). Escin is made at a 5 mM stock in water, aliquoted, and stored at -20° C. The compound plate was created at 2x concentrated in the extracellular solution. The compound was diluted to 1:2 when added to the recording well. The amount of DMSO in the extracellular solution was held constant at the level used for the highest tested concentration. A holding potential of -80 mV with a 100 ms step to 0 mV was used. Mean current was measured during the step to 0 mV. […] The average mean current from 3 sweeps was calculated and the % inhibition of each compound was calculated. The % Inhibition as a function of the compound concentration was fit with a Hill equation to derive IC50, slope, min and max parameters. If KCNT1 inhibition was less than 50% at the highest tested concentration or if an IC50 could not be calculated, then a percent inhibition was reported in place of the IC50.
In this table, “A” indicates IC50 of less than or equal to 1 µM; “B” indicates inhibition of between 1 µM to 20 µM; and “C” indicates inhibition of greater than or equal to 20 µM.

Sequence of KCNT1 (KNa1.1, Slack) (Q5JUK3 whole entry): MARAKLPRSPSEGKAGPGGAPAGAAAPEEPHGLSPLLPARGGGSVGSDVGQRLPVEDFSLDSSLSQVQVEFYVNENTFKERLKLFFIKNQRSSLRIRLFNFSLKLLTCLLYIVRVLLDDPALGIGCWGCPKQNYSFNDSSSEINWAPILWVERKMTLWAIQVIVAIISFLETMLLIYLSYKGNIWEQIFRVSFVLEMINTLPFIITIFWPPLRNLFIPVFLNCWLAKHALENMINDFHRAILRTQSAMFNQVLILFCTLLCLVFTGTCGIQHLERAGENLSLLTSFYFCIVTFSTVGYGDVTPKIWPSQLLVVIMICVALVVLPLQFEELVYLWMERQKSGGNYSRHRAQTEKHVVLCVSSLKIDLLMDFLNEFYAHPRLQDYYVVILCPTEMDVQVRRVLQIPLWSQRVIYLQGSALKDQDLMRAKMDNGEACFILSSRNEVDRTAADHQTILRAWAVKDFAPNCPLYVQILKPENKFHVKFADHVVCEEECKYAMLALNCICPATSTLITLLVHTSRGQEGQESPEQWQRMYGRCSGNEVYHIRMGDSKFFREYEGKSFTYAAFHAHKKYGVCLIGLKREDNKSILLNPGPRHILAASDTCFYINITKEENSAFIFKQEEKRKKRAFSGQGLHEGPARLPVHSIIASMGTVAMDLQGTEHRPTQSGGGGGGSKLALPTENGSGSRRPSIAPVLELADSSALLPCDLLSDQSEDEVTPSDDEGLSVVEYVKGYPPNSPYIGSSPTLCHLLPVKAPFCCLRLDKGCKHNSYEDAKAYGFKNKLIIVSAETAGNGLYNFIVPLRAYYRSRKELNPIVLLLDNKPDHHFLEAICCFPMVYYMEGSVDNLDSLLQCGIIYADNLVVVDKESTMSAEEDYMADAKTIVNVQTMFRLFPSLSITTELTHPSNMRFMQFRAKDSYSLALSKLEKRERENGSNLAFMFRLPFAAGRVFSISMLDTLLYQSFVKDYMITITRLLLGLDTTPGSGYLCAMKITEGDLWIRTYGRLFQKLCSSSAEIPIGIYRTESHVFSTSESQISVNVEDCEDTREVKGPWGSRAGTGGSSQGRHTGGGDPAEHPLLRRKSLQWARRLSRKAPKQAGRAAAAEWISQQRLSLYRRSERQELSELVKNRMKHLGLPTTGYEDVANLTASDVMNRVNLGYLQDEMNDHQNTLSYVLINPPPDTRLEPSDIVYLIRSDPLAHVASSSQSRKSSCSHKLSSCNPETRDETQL

`C[C@H](NC(=O)c1cc(C(F)(F)F)nn1C)c1cc(-c2ccnc(C(F)(F)F)c2)no1` (single isomer, unassigned) [Example 2] and `C[C@@H](NC(=O)c1cc(C(F)(F)F)nn1C)c1cc(-c2ccnc(C(F)(F)F)c2)no1` (single isomer, unassigned) [Example 3] cannot be ordered by IC50: at most 1000 nM for the first, 1000 to 20000 nM for the second.

`C[C@H](NC(=O)c1cccc(Cl)c1)c1nc(-c2ccnc(C3CC3)c2)ns1` (single isomer, unassigned) [Example 6] and `C[C@@H](NC(=O)c1cccc(Cl)c1)c1nc(-c2ccnc(C3CC3)c2)ns1` (single isomer, unassigned) [Example 7] cannot be ordered by IC50: at most 1000 nM for the first, at most 1000 nM for the second.

`C[C@H](NC(=O)N1CCCCC1)c1cc(-c2ccnc(C(F)(F)F)c2)no1` (single isomer, unassigned) [Example 8] and `C[C@@H](NC(=O)N1CCCCC1)c1cc(-c2ccnc(C(F)(F)F)c2)no1` (single isomer, unassigned) [Example 9] cannot be ordered by IC50: at least 20000 nM for the first, 1000 to 20000 nM for the second.

`C[C@@H](NC(=O)c1cc(C(F)(F)F)nn1C)c1nc(-c2ccnc(C(F)(F)F)c2)ns1` (single isomer, unassigned) [Example 10] and `C[C@H](NC(=O)c1cc(C(F)(F)F)nn1C)c1nc(-c2ccnc(C(F)(F)F)c2)ns1` (single isomer, unassigned) [Example 11] cannot be ordered by IC50: at most 1000 nM for the first, at most 1000 nM for the second.

`C[C@H](NC(=O)c1cc(C(F)(F)F)nn1C)c1nc(-c2ccnc(C3CC3)c2)ns1` (single isomer, unassigned) [Example 12] and `C[C@@H](NC(=O)c1cc(C(F)(F)F)nn1C)c1nc(-c2ccnc(C3CC3)c2)ns1` (single isomer, unassigned) [Example 13] cannot be ordered by IC50: at most 1000 nM for the first, at most 1000 nM for the second.

`C[C@H](NC(=O)c1ccccc1)c1cc(-c2ccnc(C3CC3)c2)no1` (single isomer, unassigned) [Example 14] and `C[C@@H](NC(=O)c1ccccc1)c1cc(-c2ccnc(C3CC3)c2)no1` (single isomer, unassigned) [Example 15] cannot be ordered by IC50: at most 1000 nM for the first, 1000 to 20000 nM for the second.

`C[C@@H](NC(=O)c1cc(C(F)(F)F)nn1C)c1cc(-c2ccnc(C3CC3)c2)no1` (single isomer, unassigned) [Example 16] and `C[C@H](NC(=O)c1cc(C(F)(F)F)nn1C)c1cc(-c2ccnc(C3CC3)c2)no1` (single isomer, unassigned) [Example 17] cannot be ordered by IC50: at most 1000 nM for the first, 1000 to 20000 nM for the second.

`C[C@H](NC(=O)c1cccc(Cl)c1)c1cc(-c2ccnc(C3CC3)c2)no1` (single isomer, unassigned) [Example 18] and `C[C@@H](NC(=O)c1cccc(Cl)c1)c1cc(-c2ccnc(C3CC3)c2)no1` (single isomer, unassigned) [Example 19] cannot be ordered by IC50: 1000 to 20000 nM for the first, at most 1000 nM for the second.

`C[C@@H](NC(=O)c1cccc(Cl)c1)c1cc(-c2ccnc(C(F)(F)F)c2)no1` (single isomer, unassigned) [Example 20] and `C[C@H](NC(=O)c1cccc(Cl)c1)c1cc(-c2ccnc(C(F)(F)F)c2)no1` (single isomer, unassigned) [Example 21] cannot be ordered by IC50: 1000 to 20000 nM for the first, at most 1000 nM for the second.

`C[C@@H](NC(=O)c1ccccc1)c1cc(-c2ccnc(C(F)(F)F)c2)no1` (single isomer, unassigned) [Example 22] and `C[C@H](NC(=O)c1ccccc1)c1cc(-c2ccnc(C(F)(F)F)c2)no1` (single isomer, unassigned) [Example 23] cannot be ordered by IC50: at least 20000 nM for the first, 1000 to 20000 nM for the second.

`CC(C)c1cc(C(=O)N[C@H](C)c2cc(-c3ccnc(C(F)(F)F)c3)no2)n(C)n1` (single isomer, unassigned) [Example 24] and `CC(C)c1cc(C(=O)N[C@@H](C)c2cc(-c3ccnc(C(F)(F)F)c3)no2)n(C)n1` (single isomer, unassigned) [Example 25, (N)-3-isopropyl-1-methyl-N-(1-(3-(2-(trifluoromethyl)pyridin-4-yl)isoxazol-5-yl)ethyl)-1H pyrazole-5-carboxamide] cannot be ordered by IC50: 1000 to 20000 nM for the first, at most 1000 nM for the second.

Work on `C[C@@H](NC(=O)C1CCCCC1)c1cc(-c2ccnc(C(F)(F)F)c2)no1` (single isomer, unassigned) [Example 26] yielded an IC50 of at least 20000 nM.
